Results reported in patent US6087118A, “Method for diagnosing alzheimer's disease” (priority 1999, dated 2000).
“Also recorded” adds a separate entry of the source.

How the values were obtained:
sodium/potassium pump = test: Uptake of 86Rb+ by platelets; format: cell-based, human; conditions: unpublished observations of de Silva & Aronson
[1] = tested on: K+ channels in human platelets; test: Ionomycin-stimulated 86Rb+ efflux from perfused platelets; format: cell-based; conditions: for Inhibition in controls (%) of ionomycin-stimulated 86Rb+ efflux: platelets of age- and sex-matched controls; for Inhibition in controls (%) of ionomycin-stimulated 86Rb+ efflux / Inhibition in Alzheimer's disease (%) of ionomycin-stimulated 86Rb+ efflux / Effect on ionomycin-stimulated 86Rb+ efflux, pooled data (FIG. 3a) / Effect on ionomycin-stimulated 86Rb+ efflux, pooled data (FIG. 3b): ionomycin 1 μM, apamin 100 nM, charybdotoxin 300 nM; for Inhibition in controls (%) of ionomycin-stimulated 86Rb+ efflux / Inhibition in Alzheimer's disease (%) of ionomycin-stimulated 86Rb+ efflux: median (interquartile range); for Inhibition in Alzheimer's disease (%) of ionomycin-stimulated 86Rb+ efflux: platelets of patients with AD; for Effect on ionomycin-stimulated 86Rb+ efflux, pooled data (FIG. 3a) / Inhibition of ionomycin-stimulated 86Rb+ efflux in 9 of 11 control subjects / Inhibition of ionomycin-stimulated 86Rb+ efflux in two control subjects: control subjects; for Effect on ionomycin-stimulated 86Rb+ efflux, pooled data (FIG. 3a) / Effect on ionomycin-stimulated 86Rb+ efflux, pooled data (FIG. 3b): n=11; for Effect on ionomycin-stimulated 86Rb+ efflux, pooled data (FIG. 3a): P<0.0001; for Inhibition of ionomycin-stimulated 86Rb+ efflux in 9 of 11 control subjects: the 9 of 11 that responded; for Inhibition of ionomycin-stimulated 86Rb+ efflux in two control subjects: the other 2 of 11 (minimal effects); for Inhibition of ionomycin-stimulated 86Rb+ efflux in 8 of 11 patients with AD: 8 of 11 (minimal effects); for Effect on ionomycin-stimulated 86Rb+ efflux, pooled data (FIG. 3b): patients with Alzheimer's disease, P=0.883
Description: (§1) Platelet perfusion^17. Blood was drawn by venepuncture and anticoagulated with acid-citratedextrose (ACD). Platelets were prepared by centrifugation within an hour of venesection and incubated with ^86 Rb^+ for 2 h. The platelet suspension (2.5×10^7 platelets per ml) was then injected into perfusion chambers, where the cells settled and became immobilized on inert filters (Millipore). The platelets were then continuously perfused with Krebs solution, to allow them to stabilize for 20 min before the start of each experiment. The perfusion buffer was then changed for 5 min to Krebs solution containing thrombin (0.3 IU/ml) or ionomycin (1 μM), after which the perfusion was switched to the original solution and continued for another 20 min. From 0 to 10 min after the addition of thrombin or ionomycin the perfusate was collected at 1-min intervals and thereafter at 2-min intervals. The solutions used for perfusion were bubbled with 95% O2 and 5% CO2 throughout the experiment (pH 7.4). At the end of the experiment the polycarbonate filters were retrieved and placed in scintillation vials, to which 3.5 ml of Aquasafe 500 scintillation fluid was added. The radioactivity in the perfusates and filters was determined by liquid scintillation counting in a Beckmann LS 6000 SE counter and the loss of radioactivity from the cells was calculated. The amount of ^86 Rb^+ (pmol) in each fraction of perfusate collected was determined using the specific activity of the isotope. The radioactivity was measured in each fraction and the results were plotted as the cumulative efflux of ^86 Rb^+ against time.
(§2) Buffers and drucas. ACD contained citric acid (15 g), trisodium citrate (25 g), and dextrose (20 g) in 1 l of distilled water. Krebs buffer contained (mmol/l): NaCl (119); KCl (4.6); CaCl2 (1.5); NaH2 PO4 (1.2); MgCl2 (1.2); NaHCO3 (15); and glucose (11). Apamin, charybdotoxin, α-dendrotoxin, iberiotoxin, ionomycin, and human thrombin were purchased from Sigma Chemical Company, Poole, Dorset. ^86 RbCl was purchased from Amersham International plc (Amersham, Bucks).
(§3) Thrombin and ionomycin. Solutions of thrombin were prepared freshly in distilled water for each experiment and further diluted to a concentration of 0.3 IU/ml in Krebs solution. Stock solutions of ionomycin (10 mM in dimethylsulphoxide) were prepared and stored in aliquots at 4° C. On the day of the experiment ionomycin was further diluted in Krebs solution to a concentration of 1 μM.
(§4) Apamin, charybdotoxin, iberiotoxin, and α-dendrotoxin. Apamin, charybdotoxin, iberiotoxin, and α-dendrotoxin were […]. Apamin, (100 nM), charybdotoxin (300 nM), iberiotoxin (300 nM), and α-dendrotoxin (200 nM) were reconstituted in distilled water and stored in aliquots at -20° C. On the day of the experiment the toxins were further diluted in Krebs solution. Apamin was pre-incubated with the platelets (added at time -20 min) and charybdotoxin, iberiotoxin, and α-dendrotoxin were added with thrombin (at 0 min) for a period of 5 min.
(§5) Data Dresentation and analysis. The results in FIGS. 1-3 are shown as cumulative effluxes of ^86 Rb^+ from 0 to 14 min. The data are shown as means±SEMs (n=number of experiments with platelets obtained from different volunteers). The efflux data were analyzed using analysis of variance with repeated measures.
(§6) K^+ channel fluxes. Platelets were prepared and their K^+ channel fluxes studied as described by DeSilva, H. A. et al^17, by loading fresh platelets with ^86 Rb^+ (used as a radioactive analogue of K^+)^18,19 and stimulating ^86 Rb^+ efflux with thrombin and ionomycin.

[2] = tested on: K+ channels in human platelets; test: Thrombin-stimulated 86Rb+ efflux from perfused platelets; format: cell-based; conditions: for Effect on thrombin-stimulated 86Rb+ efflux, pooled data (FIGS. 1a, 2a) / Inhibition of thrombin-stimulated 86Rb+ efflux in 8 of 11 control subjects / Inhibition of thrombin-stimulated 86Rb+ efflux in the other three control subjects: control subjects; for Effect on thrombin-stimulated 86Rb+ efflux, pooled data (FIGS. 1a, 2a): n=11, P<0.0001; for Effect on thrombin-stimulated 86Rb+ efflux, pooled data (FIGS. 1a, 2a) / Effect on thrombin-stimulated 86Rb+ efflux, pooled data (FIGS. 1b, 2b) / Inhibition in controls (%) of thrombin-stimulated 86Rb+ efflux / Inhibition in Alzheimer's disease (%) of thrombin-stimulated 86Rb+ efflux: thrombin 0.3 IU/ml, apamin 100 nM, charybdotoxin 300 nM, α-dendrotoxin 200 nM; for Inhibition of thrombin-stimulated 86Rb+ efflux in 8 of 11 control subjects: the 8 of 11 that responded; for Inhibition of thrombin-stimulated 86Rb+ efflux in the other three control subjects: the other 3 of 11 (minimal effects); for Inhibition of thrombin-stimulated 86Rb+ efflux in 9 of 12 patients with AD: 9 of 12 (minimal effects); for Inhibition of thrombin-stimulated 86Rb+ efflux in the other three patients with AD: the other 3 of 12; for Effect on thrombin-stimulated 86Rb+ efflux, pooled data (FIGS. 1b, 2b): patients with Alzheimer's disease, n=12; for Inhibition in controls (%) of thrombin-stimulated 86Rb+ efflux: platelets of age- and sex-matched controls; for Inhibition in controls (%) of thrombin-stimulated 86Rb+ efflux / Inhibition in Alzheimer's disease (%) of thrombin-stimulated 86Rb+ efflux: median (interquartile range); for Inhibition in Alzheimer's disease (%) of thrombin-stimulated 86Rb+ efflux: platelets of patients with AD
Description: as §1, §2, §3, §4, §5, §6

| Compound | Inhibition in controls (%) of ionomycin-stimulated 86Rb+ efflux ([1]; iberiotoxin 300 nM) | Inhibition in Alzheimer's disease (%) of ionomycin-stimulated 86Rb+ efflux ([1]; iberiotoxin 300 nM) | Effect on ionomycin-stimulated 86Rb+ efflux, pooled data (FIG. 3a) [1] | Inhibition of ionomycin-stimulated 86Rb+ efflux in 9 of 11 control subjects [1] | Inhibition of ionomycin-stimulated 86Rb+ efflux in two control subjects [1] | Inhibition of ionomycin-stimulated 86Rb+ efflux in 8 of 11 patients with AD [1] | Effect on ionomycin-stimulated 86Rb+ efflux, pooled data (FIG. 3b) [1] | Effect on thrombin-stimulated 86Rb+ efflux, pooled data (FIGS. 1a, 2a) [2] | Inhibition of thrombin-stimulated 86Rb+ efflux in 8 of 11 control subjects [2] | Inhibition of thrombin-stimulated 86Rb+ efflux in the other three control subjects [2] | Inhibition of thrombin-stimulated 86Rb+ efflux in 9 of 12 patients with AD [2] | Inhibition of thrombin-stimulated 86Rb+ efflux in the other three patients with AD [2] | Effect on thrombin-stimulated 86Rb+ efflux, pooled data (FIGS. 1b, 2b) [2] | Inhibition in controls (%) of thrombin-stimulated 86Rb+ efflux [2] | Inhibition in Alzheimer's disease (%) of thrombin-stimulated 86Rb+ efflux [2] | further results |
| --- | --- | --- | --- | --- | --- | --- | --- | --- | --- | --- | --- | --- | --- | --- | --- | --- |
| C[C@@H]1O[C@@H](O[C@H]2C[C@@H](O)[C@]3(CO)[C@H]4[C@H](O)C[C@]5(C)[C@@H](C6=CC(=O)OC6)CC[C@]5(O)[C@@H]4CC[C@]3(O)C2)[C@H](O)[C@H](O)[C@H]1O [ouabain] | – | – | – | – | – | – | – | – | – | – | – | – | – | – | – | Share of 86Rb+ uptake in platelets inhibitable by ouabain (sodium/potassium pump): over 90% |
| iberiotoxin (QFTDVDCSVSKECWSVCKDLFGVDRGKCMGKKCRCYQ; UniProt P24663 1-37, looked up) [purchased from Sigma] | 2 (0-3) % | 0 (0-4) % | – | – | – | – | – | – | – | – | – | – | – | – | – | Effect on ionomycin-stimulated effluxes in platelets from any individual ([1]; patients with AD and controls, iberiotoxin 300 nM): no effect |
| charybdotoxin | 28 (20-34) % | 4 (1-26) % | inhibited; also recorded: significant reductions | ≥ 22% | less than 12% | less than 12% | no significant effect; also recorded: minimal effects | inhibited; also recorded: significant reductions | ≥ 16% | less than 10% | less than 10% | at least 16% | no significant effect; also recorded: neither apamin nor charybdotoxin caused significant reductions | 22 (18-29) % | 0 (0-4) % | – |
| CC(C)C[C@@H]1NC(=O)[C@H](C)NC(=O)[C@H]([C@@H](C)O)NC(=O)[C@H](CCC(=O)O)NC(=O)[C@@H]2CCCN2C(=O)[C@H](C)NC(=O)[C@H](CCCCN)NC(=O)[C@@H]2CSSC[C@@H](C(=O)N[C@@H](CCC(N)=O)C(=O)N[C@@H](CCC(N)=O)C(=O)N[C@@H](Cc3cnc[nH]3)C(N)=O)NC(=O)[C@H](CCCNC(=N)N)NC(=O)[C@H](CCCNC(=N)N)NC(=O)[C@H](C)NC(=O)[C@H](CSSC[C@H](N)C(=O)N[C@@H](CC(N)=O)C(=O)N2)NC1=O [Apamin] | 30 (20-31) % | 1 (0-20) % | inhibited | at least 18% | less than 12% | less than 12% | no significant effect | inhibited | at least 18% | less than 10% | less than 10% | at least 16% | no significant effect | 26 (20-27) % | 0 (0-0) % | Effect on ionomycin-stimulated 86Rb+ efflux, pooled data (FIG. 3a) ([1]; listed as apamin): significant reductions; Effect on ionomycin-stimulated 86Rb+ efflux, pooled data (FIG. 3b) ([1]; listed as apamin): minimal effects; Effect on thrombin-stimulated 86Rb+ efflux, pooled data (FIGS. 1a, 2a) ([2]; listed as apamin): significant reductions; Effect on thrombin-stimulated 86Rb+ efflux, pooled data (FIGS. 1b, 2b) ([2]; listed as apamin): neither apamin nor charybdotoxin caused significant reductions |
| α-dendrotoxin | – | – | – | – | – | – | – | inhibited | – | – | – | – | inhibited | 26 (20-29) % | 19 (18-27) % | – |
